Measurements reported in PMC7316778 (Nature Communications, 2020).
Values joined by “and” are separate entries in the source; they are usually repeats but may differ in a detail not shown here. Equal entries are not always repeated. Where two headings read alike, the source gives them in different places.

Experiments:
[1] = biological target: RPS6KA6 (RSK4) (Homo sapiens, UniProt Q9UK32); test: SelectScreen kinase assay
Method: (§1) Selectivity profiling assays were performed by the Invitrogen SelectScreen™ Services. […] The concentration of ATP was selected to be equal to the KM, unless indicated otherwise.

[2] = biological target: FRAP1 (mTOR) (Homo sapiens, UniProt P42345); test: SelectScreen kinase assay
Method: as §1

[3] = biological target: TEK (Tie2) (Homo sapiens, UniProt Q02763); test: SelectScreen kinase assay
TEK (Tie2), sequence (Q02763 23-1124): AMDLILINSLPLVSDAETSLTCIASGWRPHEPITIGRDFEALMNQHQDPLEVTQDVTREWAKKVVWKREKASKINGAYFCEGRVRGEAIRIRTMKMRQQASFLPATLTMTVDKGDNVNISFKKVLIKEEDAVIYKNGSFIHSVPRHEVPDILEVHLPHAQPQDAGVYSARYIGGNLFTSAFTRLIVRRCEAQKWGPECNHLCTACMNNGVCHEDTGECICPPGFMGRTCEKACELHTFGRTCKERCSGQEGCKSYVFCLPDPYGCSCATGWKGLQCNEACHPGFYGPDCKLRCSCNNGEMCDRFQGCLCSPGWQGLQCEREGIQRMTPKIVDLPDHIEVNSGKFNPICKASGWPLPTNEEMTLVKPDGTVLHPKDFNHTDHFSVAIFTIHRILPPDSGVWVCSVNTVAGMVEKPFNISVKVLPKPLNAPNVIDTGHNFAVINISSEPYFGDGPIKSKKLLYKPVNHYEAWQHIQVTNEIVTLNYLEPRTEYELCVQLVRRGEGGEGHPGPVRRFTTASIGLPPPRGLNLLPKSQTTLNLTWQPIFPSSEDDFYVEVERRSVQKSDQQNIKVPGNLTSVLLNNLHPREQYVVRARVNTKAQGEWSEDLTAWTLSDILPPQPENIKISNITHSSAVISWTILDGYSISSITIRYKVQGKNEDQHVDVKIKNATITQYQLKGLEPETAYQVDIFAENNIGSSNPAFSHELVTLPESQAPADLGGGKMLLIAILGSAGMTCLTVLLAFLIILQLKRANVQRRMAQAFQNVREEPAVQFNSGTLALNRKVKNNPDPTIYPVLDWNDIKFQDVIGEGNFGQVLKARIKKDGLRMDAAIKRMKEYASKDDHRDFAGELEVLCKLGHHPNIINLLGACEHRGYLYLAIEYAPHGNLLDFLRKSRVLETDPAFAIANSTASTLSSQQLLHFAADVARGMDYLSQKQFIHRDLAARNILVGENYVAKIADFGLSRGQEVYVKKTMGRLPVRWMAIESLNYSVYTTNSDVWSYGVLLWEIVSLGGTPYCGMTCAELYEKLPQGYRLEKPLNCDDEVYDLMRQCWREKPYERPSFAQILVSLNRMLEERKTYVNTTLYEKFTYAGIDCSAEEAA
Method: as §1

[4] = biological target: T1, TBK1 (Homo sapiens, UniProt Q9UHD2); test: SelectScreen kinase assay
T1 sequence (Q9UHD2 1-729): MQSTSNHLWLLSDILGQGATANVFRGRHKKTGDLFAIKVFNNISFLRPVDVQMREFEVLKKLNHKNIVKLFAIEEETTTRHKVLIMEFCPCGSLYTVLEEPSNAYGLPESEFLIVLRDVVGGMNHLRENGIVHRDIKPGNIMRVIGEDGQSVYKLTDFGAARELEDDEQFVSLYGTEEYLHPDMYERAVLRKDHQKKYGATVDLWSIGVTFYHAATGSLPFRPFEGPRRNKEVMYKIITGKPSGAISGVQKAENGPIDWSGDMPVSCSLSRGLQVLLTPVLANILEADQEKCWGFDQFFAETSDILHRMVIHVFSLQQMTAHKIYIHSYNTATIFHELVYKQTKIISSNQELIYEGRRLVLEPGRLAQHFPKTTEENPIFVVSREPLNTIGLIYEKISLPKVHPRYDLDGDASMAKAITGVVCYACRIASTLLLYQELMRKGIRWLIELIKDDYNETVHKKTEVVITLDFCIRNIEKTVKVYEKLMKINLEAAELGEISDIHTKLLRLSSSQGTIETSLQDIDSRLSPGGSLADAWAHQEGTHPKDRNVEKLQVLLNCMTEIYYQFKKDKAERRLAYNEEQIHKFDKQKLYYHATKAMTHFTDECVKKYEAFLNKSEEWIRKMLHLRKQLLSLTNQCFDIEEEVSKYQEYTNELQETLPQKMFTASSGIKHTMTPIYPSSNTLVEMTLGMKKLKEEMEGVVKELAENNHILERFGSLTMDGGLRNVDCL
Method: as §1

[5] = biological target: CLK3 (Homo sapiens, UniProt P49761); test: SelectScreen kinase assay
CLK3, sequence (P49761 whole entry): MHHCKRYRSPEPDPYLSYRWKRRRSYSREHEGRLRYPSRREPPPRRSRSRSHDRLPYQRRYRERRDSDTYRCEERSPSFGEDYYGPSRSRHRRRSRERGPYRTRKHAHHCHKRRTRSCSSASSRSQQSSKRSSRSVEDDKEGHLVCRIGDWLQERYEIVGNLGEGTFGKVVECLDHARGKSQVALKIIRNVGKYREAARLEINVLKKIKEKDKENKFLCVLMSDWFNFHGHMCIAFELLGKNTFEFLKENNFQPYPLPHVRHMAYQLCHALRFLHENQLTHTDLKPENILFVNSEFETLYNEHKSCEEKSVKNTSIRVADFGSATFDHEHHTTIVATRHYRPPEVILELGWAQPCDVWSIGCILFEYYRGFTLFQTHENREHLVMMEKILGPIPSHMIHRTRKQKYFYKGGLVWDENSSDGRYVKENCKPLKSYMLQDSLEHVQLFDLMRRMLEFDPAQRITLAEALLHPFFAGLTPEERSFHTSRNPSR
Method: as §1

[6] = biological target: FES^S700C (Homo sapiens, UniProt P07332, S700C); test: Time-dependent probe displacement by WEL033 in lysate
FES^S700C, sequence (P07332 whole entry S700C): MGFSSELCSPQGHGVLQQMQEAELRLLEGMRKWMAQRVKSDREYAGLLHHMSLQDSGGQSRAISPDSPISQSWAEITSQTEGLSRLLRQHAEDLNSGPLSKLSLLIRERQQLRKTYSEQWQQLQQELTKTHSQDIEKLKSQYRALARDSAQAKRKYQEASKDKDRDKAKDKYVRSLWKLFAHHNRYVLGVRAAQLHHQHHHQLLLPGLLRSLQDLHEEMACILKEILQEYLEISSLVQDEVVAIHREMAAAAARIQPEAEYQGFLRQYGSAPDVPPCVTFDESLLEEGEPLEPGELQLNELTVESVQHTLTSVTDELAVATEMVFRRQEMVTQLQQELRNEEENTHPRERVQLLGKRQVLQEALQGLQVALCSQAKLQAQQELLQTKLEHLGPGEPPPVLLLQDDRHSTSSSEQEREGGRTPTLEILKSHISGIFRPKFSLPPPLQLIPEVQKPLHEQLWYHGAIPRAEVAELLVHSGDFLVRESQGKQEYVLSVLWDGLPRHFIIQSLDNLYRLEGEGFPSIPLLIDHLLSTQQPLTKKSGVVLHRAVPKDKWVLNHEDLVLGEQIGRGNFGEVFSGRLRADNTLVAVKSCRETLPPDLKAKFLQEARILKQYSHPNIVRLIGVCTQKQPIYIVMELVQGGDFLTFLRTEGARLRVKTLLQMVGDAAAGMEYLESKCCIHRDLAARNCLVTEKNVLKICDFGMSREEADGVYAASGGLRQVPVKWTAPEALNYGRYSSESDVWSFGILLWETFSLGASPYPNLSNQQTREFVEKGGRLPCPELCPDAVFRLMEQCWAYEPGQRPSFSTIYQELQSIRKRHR

[7] = biological target: T2, EPHB4 (Homo sapiens, UniProt P54760); test: SelectScreen kinase assay; settings: for Inhibition at 1 µM (%): EPHB4, ZLYTE, ATP Km app
T2 sequence (P54760 16-987): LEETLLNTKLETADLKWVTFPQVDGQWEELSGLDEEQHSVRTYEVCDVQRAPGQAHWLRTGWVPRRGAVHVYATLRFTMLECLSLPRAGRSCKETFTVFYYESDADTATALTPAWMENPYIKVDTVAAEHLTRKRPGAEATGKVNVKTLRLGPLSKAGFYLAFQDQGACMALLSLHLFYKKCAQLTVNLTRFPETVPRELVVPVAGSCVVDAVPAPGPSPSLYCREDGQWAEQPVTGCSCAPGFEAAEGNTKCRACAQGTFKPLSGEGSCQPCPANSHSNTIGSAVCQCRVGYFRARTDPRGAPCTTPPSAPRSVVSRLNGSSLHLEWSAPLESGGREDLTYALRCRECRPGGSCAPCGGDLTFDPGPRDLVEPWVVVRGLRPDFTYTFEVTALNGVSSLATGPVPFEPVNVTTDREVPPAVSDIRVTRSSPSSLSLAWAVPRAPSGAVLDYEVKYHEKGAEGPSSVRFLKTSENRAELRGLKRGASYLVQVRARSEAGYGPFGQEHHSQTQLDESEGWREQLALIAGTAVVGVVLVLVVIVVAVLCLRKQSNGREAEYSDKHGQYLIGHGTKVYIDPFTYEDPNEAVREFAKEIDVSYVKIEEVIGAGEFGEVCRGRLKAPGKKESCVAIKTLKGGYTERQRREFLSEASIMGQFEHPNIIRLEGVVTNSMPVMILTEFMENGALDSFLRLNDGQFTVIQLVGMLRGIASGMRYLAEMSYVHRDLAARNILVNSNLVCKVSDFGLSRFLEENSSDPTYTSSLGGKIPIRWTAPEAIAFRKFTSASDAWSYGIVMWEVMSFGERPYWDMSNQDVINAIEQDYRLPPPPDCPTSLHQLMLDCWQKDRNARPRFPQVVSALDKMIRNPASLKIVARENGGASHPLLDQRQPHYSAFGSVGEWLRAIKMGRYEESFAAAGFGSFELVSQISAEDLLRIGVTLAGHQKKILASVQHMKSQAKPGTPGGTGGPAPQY
Method: as §1

[8] = biological target: PAK6 (Homo sapiens, UniProt Q9NQU5); test: SelectScreen kinase assay; settings: 1 h, 1 μM WEL028, 1 h preincubation
PAK6, sequence (Q9NQU5 whole entry): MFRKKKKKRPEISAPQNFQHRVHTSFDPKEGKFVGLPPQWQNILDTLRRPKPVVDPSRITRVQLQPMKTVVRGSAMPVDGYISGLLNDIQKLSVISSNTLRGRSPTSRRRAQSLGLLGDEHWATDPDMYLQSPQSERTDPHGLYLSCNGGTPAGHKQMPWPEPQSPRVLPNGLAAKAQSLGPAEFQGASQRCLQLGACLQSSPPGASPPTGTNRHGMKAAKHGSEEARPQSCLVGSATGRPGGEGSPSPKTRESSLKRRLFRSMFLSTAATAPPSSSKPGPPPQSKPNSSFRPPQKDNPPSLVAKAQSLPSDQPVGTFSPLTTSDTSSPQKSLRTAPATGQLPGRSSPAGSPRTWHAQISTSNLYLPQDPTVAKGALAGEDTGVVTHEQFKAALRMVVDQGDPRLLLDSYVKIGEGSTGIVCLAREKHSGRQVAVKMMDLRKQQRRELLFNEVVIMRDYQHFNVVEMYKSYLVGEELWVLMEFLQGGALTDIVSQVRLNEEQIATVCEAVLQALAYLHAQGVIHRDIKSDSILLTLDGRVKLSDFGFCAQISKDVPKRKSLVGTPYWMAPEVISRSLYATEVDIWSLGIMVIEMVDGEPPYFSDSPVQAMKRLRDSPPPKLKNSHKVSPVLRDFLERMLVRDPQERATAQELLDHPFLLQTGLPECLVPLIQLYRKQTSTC
Method: as §1

[9] = 1 µM, ZLYTE, ATP Km app, listed as WEL028, 1 µM
[10] = 1 h, 1 μM WEL028, 1 h preincubation

RPS6KA6 (RSK4), sequence (Q9UK32 whole entry): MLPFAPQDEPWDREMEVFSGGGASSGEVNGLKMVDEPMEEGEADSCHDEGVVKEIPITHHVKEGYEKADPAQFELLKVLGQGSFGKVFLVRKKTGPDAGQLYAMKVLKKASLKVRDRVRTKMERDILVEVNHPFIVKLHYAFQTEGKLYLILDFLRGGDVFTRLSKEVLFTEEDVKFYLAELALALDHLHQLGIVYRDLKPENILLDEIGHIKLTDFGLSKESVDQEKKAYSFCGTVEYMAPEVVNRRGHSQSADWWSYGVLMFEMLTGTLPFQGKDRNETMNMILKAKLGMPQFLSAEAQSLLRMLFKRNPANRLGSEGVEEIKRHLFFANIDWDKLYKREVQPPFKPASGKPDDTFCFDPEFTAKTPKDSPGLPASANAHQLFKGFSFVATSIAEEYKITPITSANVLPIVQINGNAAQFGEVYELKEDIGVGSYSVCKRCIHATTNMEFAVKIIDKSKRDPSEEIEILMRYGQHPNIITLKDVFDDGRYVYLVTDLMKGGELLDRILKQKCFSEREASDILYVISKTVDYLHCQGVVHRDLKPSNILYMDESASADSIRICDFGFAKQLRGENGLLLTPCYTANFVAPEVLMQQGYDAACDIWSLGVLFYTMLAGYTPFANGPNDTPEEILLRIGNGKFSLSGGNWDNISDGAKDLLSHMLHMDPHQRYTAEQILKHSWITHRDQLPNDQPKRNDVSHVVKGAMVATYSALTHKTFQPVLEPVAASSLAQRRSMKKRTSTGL

C#CCOc1ccc(Nc2ncc(Cl)c(Nc3ccccc3NC(=O)C=C)n2)c(OC)c1 [Compound 6]
Inhibition (%) ([1]; 1 μM WEL028, 1 h preincubation): 5% | Inhibition at 1 µM (%) [1, 9]: 1% and 9% | inhibition at 1 µM [2, 10]: 11% | Inhibition at 1 µM (%) ([2]; FRAP1 (mTOR), 1 µM, ZLYTE, ATP Km app): 19% | Inhibition at 1 µM (%) [3, 9]: 4% and 10% | inhibition at 1 µM [3, 10]: 7% | Inhibition at 1 µM (%) [4, 9]: 6% | inhibition at 1 µM [4, 10]: 7% | inhibition at 1 µM ([4]; read-out: Inhibition at 1 µM (%), 1 µM, ZLYTE, ATP Km app): 8% | inhibition at 1 µM [5, 10]: 11% | Inhibition at 1 µM (%) ([5]; CLK3, 1 µM, ZLYTE, ATP Km app): 23% | IC80 ([6]; read-out: IC80-concentration (20% remaining activity)): 0.027 µM | Mode of action ([6]; recovery of WEL033 labeling after inhibitor at IC80): irreversible | inhibition at 1 µM [7, 10]: 1% | Inhibition at 1 µM (%) [7]: 3% | Inhibition at 1 µM (%) ([7]; listed as WEL028, 1 µM): -1% | inhibition at 1 µM [8]: -7%
